# Measured values from US20020031818A1, “Modification of Mdm2 activity” (priority 2000, published 2002).
# Tests used:
# Mdm2 [1] = experiment: In vivo ubiquitination of Mdm2 in EJ cells (HA-Ub, Mdm2 immunoprecipitation); format: cell-based, mouse
# Excerpt: FIG. 14A-14E. A. In vitro ubiquitination of Mdm2 is inhibited by p19^ARF. GST-Mdm2 was subjected to an in vitro ubiquitination reaction using purified forms of E1, E2 and Ub-HA in the presence of ATP. Addition of bacculovirus-purified p19^ARF at the indicated concentrations blocked Mdm2 ubiquitination. Glutathione bead-coupled GST-Mdm2 in its ubiquitinated or non-ubiquitinated forms was washed and analyzed on immunoblots using antibodies to HA (upper panel). Middle panel depicts the level of Mdm2 expression and the lower panel, the level of p19^ARF added to the reaction. B. p19^ARF expression increases Mdm2 self-ubiquitination in EJ cells. EJ cells were transfected with the indicated plasmids. Cells were harvested 36 h later and proteins ([…]) were immunoprecipitated using Mdm2 antibodies (2A10). Immunoprecipitated material was washed and proteins loaded onto 10% SDS-PAGE, followed by immunoblot analysis with HA-antibodies to detect covalent HA-ubiquitin conjugation to Mdm2 (upper panel). Middle panel depicts level of immunoprecipitated Mdm2. Lower panel represents western analysis of p19^ARF expression levels. C. In vitro ubiquitination of Mdm2 in the presence of p19^ARF and protein extracts. […] The level of p53 immunoprecipitated was monitored in immunoblots using polyclonal antibodies to p53 (middle). […]
# Mdm2 [2] = experiment: 35S pulse-chase half-life of Mdm2 forms in p53/Mdm2 double null cells; format: cell-based, human; details: lactacystin 25 μM
# Experimental: C. p53/Mdm2 double null cells were transfected with the wt or K1 forms of Mdm2 and 24 h later were subjected to pulse chase labeling with ^35S-methionine in the absence or presence of lactacystin (25 μM) as indicated in Figure. Proteins prepared at the indicated time-points were immunoprecipitated using monoclonal antibodies to Mdm2 followed by autoradiography.
# p53/Mdm2 double null cells were transfected with wt or K1 forms of Mdm2 expression vectors (4 μg). ^35S-methionine (1 mCi) was added to the cell cultures 24 h after transfection for 5 hr (pulse) followed by chase (2 mM cold methionine) for the indicated time-points. Protein extracts (1 mg) were used for immunopurification of Mdm2 using mixture of monoclonal antibodies (2A-10/3 F1). Immunoprecipitated Mdm2 was washed, separated on 10% SDS-PAGE and analyzed by autoradiography.
# p53-mediated apoptosis = experiment: Apoptosis assay (DNA fragmentation, flow cytometry) in Mdm2/p53 double null cells; format: cell-based; details: co-expression with p53 in Mdm2/p53 double null cells
# Experimental: FIGS. 5A-5D. Mdm2 sumoylation or mutation on Lys446 increases p53 ubiquitination and degradation and decreases p53 ability to mediate apoptosis. […] WCE was immunoprecipitated using monoclonal p53 antibodies. […] B. Ubiquitinated Mdm2 is less efficient in targeting the ubiquitination of p53. Bacterially expressed Mdm2 ([…]) was subjected to in vitro ubiquitination (self ubiquitination) in the presence of E1 [45 ng], E2 UbcH5b [1.5 μg] and ubiquitin [3 μg; SIGMA] and […] in ubiquitination buffer for the 0, 2, or 3 h (to ensure efficient self-ubiquitination) as indicated in Figure. To monitor the degree of Mdm2's ability to target the ubiquitination of p53, equal amounts of the self-ubiquitinated Mdm2 were extensively washed with TBS/0.5% Triton X-100 before incubated with bacculovirus-expressed and purified form of HA-tagged p53 for 2 h in the presence of E1, E2 and ubiquitin. The degree of p53 ubiquitination was monitored via immunoblot analysis using antibodies to HA. C. […]
# Mdm2/p53 double null cells were transfected with Mdm2 constructs (as indicated) and marker plasmid encoding Green Fluorescent Protein, pEGFP (1 μg). […] The percentage of cells to the left of the diploid G0/1 peak, characteristic of hypodiploid cells, was calculated as the percentage of apoptotic cells.
compound,measurement,setting,value
C[S+]([O-])c1ccc(-c2nc(-c3ccncc3)c(-c3ccc(F)cc3)[nH]2)cc1 (centres unmarked) [SB203580],p19ARF-mediated Mdm2 ubiquitination in inhibitor-treated cells,"Mdm2 [1]; EJ cells with Flag-Mdm2, p19ARF, HA-Ub, PD 98059 50 μM, SB203580 10 and 100 μM, LY294002 50 μM, Herbimycin 1 μM",capable of attenuating p19^ARF-mediated Mdm2 ubiquitination
same,increase in Mdm2 ubiquitination after UV treatment in inhibitor-pretreated cells,"Mdm2 [1]; SB203580 10 μM or LY294002 50 μM, 2 h prior to harvest",attenuated
CC(=O)N[C@@H](CSC(=O)[C@]1([C@@H](O)C(C)C)NC(=O)[C@H](C)[C@@H]1O)C(=O)O [lactacystin],effect on half life of K1 form of Mdm2,Mdm2 [2]; K1 expressing cells,remained unchanged
same,effect on half-life of p75 and p90 forms of Mdm2,Mdm2 [2]; wt Mdm2 transfected cells,prolonged the half-life of both p75 and p90
K1: Mdm2 mutant with lysine 446 substituted for arginine,decrease in p53-induced apoptosis (cell death) compared with wt Mdm2,p53-mediated apoptosis,greater decrease in degree of cell death
